According to US11717561B2, “Multimodal antimicrobial therapy” (Longhorn Vaccines and Diagnostics, LLC, priority 2013, dated 2023):
Read-outs that look alike come from different tables or passages of the source.

Legend:
[1] = system: Mycobacterium smegmatis (MS); assay: Effect of antibiotics and lysostaphin on growth/lysis of live M. smegmatis, % T at 650 nm; format: cell-based
ethanol-killed MTB = format: cell-based, M. tuberculosis; conditions: 375 μg/ml
[2] = Imp 1 mg/ml, Lysostaphin 0 units/ml
[3] = Rif 1 mg/ml, Lysostaphin 0 units/ml

C[C@@H](O)[C@H]1C(=O)N2C(C(=O)O)=C(SCCNC=N)C[C@H]12.O [Imp, Imipenem monohydrate]
% Transmission (% T) change from baseline (negative equals growth, positive equals lysis/killing) ([1]; Imipenem 1.0 mg/ml without lysostaphin): +12.54 % T
% T 5 min [1, 2]: 78.00%
% T 3 hours [1, 2]: 82.67%
% T 20 hours [1, 2]: 90.54%

Lysostaphin: natural lysostaphin from S. staphylolyticus (Sigma Cat L7386), a 27 kD glycylglycine endopeptidase
% T 5 min ([1]; Lysostaphin alone 200 units/ml): 77.34%
% T 3 hours ([1]; Lysostaphin alone 200 units/ml): 71.54%
% T 20 hours ([1]; Lysostaphin alone 200 units/ml): 45.47%

Recombinant Lysostaphin: recombinant simulans lysostaphin produced in E. coli (Sigma-Aldrich)
% T at 3 min (ethanol-killed MTB; bacterial dilution 1:2): 86.268%
% T at 10 min (ethanol-killed MTB; bacterial dilution 1:2): 91.59%
% T at 20 min (ethanol-killed MTB; bacterial dilution 1:2): 92.587%
% T at 3 min (ethanol-killed MTB; bacterial dilution 1:4): 95.356%
% T at 10 min (ethanol-killed MTB; bacterial dilution 1:4): 77.33%
% T at 20 min (ethanol-killed MTB; bacterial dilution 1:4): 92.651%
% T at 3 min (ethanol-killed MTB; bacterial dilution 1:8): 97.308%
% T at 10 min (ethanol-killed MTB; bacterial dilution 1:8): 98.03%
% T at 20 min (ethanol-killed MTB; bacterial dilution 1:8): 98.186%

CO[C@H]1/C=C/O[C@@]2(C)Oc3c(C)c(O)c4c(O)c(c(/C=N/N5CCN(C)CC5)c(O)c4c3C2=O)NC(=O)/C(C)=C\C=C\[C@H](C)[C@H](O)[C@@H](C)[C@@H](O)[C@@H](C)[C@H](OC(C)=O)[C@@H]1C [Rif, Rifampicin]
% T 5 min [1, 3]: 79.25%
% T 3 hours [1, 3]: 75.27%
% T 20 hours [1, 3]: 71.79%
